From patent US9221756B2, “Pyrrole derivatives” (priority 2011, dated 2015) come the findings set out here.

Read-outs that look alike come from different tables or passages of the source.

Data set [1] in a line: Conversion of prodrug derivatives to active inhibitors in mouse plasma. The data set is classed as in vitro ADME. Conditions: 37° C., 10 μM start, prodrug remaining; for [ ] (μM) t0 min. Prodrug: 0 min; for [ ] (μM) t15 min. Prodrug: 15 min; for [ ] (μM) t30 min. Prodrug: 30 min; for [ ] (μM) t60 min. Prodrug: 60 min; for [ ] (μM) t120 min. Prodrug: 120 min. The protocol:
(§1) The samples were then analysed by LC-MS/MS to obtain the amount of active compound appearing and prodrug derivative remaining over time. The mouse plasma assay system is considered to be a good model for human behaviour. Nevertheless data obtained in a human plasma assay system was obtained in some cases.
(§2) Prodrug derivatives were assessed in the mouse and human plasma stability assay at a concentration of 10 μM. Test compounds were diluted in DMSO to a final stock concentration of 10 mM. For the purpose of the assay, the stocks prepared were further diluted in DMSO to a concentration of 400 μM and […] were added to 195 μl of mouse or human plasma (pH 7.4) and then incubated at 37° C. The final concentration of DMSO in the plate was 2.5% (v/v). Reactions were terminated at 0, 15, 30, 60 and 120 min after incubation by adding 400 μl of acetonitrile containing 0.55 μM metoprolol and 1% (v/v) formic acid. The plate was then centrifuged at 3000 rpm, for 45 min, at 4° C. 80 μl of supernatant were transferred into a conical bottom 96 well glass coated plate. 40 μl of water were added prior to analysis for prodrug derivative and active species by LC-MS/MS. This assay was performed by a contract research organisation, Cyprotex Discovery Limited, UK, at the request of the inventors at Leicester.
(§3) (1) The active compound was quantified using a 6 point calibration curve prepared in deactivated mouse and human plasma. (2) The percentage of parent compound remaining at each time point relative to 0 min sample was calculated from LC-MS/MS peak area ratios (compound peak area/internal standard peak area). This percentage was then used to determine the concentration of the parent compound at each time point in reference to the starting concentration (10 μM) at time 0 min.

Data set [2] concerns the target pneumolysin (Streptococcus pneumoniae serotype 2, UniProt Q04IN8). The data set can be described thus: Inhibition of the haemolytic activity of pneumolysin (sheep erythrocytes). The data set is classed as cell-based. Conditions: class symbols of Table 1.
The format of data set [3] is in vitro ADME. To be noted: human plasma; for [ ] (μM) t0 min. Prodrug (Human) / [ ] (μM) t15 min. Prodrug (Human) / [ ] (μM) t30 min. Prodrug (Human) / [ ] (μM) t60 min. Prodrug (Human) / [ ] (μM) t120 min. Prodrug (Human): 37° C., 10 μM start, prodrug remaining; for [ ] (μM) t15 min. Prodrug (Human): 15 min; for [ ] (μM) t30 min. Prodrug (Human): 30 min; for [ ] (μM) t60 min. Prodrug (Human): 60 min; for [ ] (μM) t120 min. Prodrug (Human): 120 min. The protocol:
as §1, §2, §3

The mark [4] stands for this setting: IC50, inhibition of pneumolysin-induced haemolysis of sheep erythrocytes.
The mark [5] stands for this setting: inhibition of pneumolysin-induced haemolysis of sheep erythrocytes.
[6] abbreviates: inhibition of pneumolysin-induced haemolysis of sheep erythrocytes, read-out: IC50.

Chain of pneumolysin (Q04IN8 whole entry): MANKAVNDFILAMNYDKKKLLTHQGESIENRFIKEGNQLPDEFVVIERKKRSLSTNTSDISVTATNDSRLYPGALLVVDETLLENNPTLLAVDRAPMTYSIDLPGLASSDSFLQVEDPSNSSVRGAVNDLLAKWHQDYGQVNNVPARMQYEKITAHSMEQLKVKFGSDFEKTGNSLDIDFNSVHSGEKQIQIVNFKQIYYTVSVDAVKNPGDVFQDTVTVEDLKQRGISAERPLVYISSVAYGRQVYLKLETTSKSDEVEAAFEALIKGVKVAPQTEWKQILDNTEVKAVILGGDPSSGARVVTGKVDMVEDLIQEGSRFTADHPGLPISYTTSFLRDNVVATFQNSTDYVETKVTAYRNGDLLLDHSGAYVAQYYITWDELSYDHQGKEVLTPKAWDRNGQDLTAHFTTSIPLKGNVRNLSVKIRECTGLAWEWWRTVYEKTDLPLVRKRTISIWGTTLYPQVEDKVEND

The IC50 is the point on the concentration scale where inhibition reaches its midpoint. For `CCOC(=O)c1c(OC(=O)C(C)C)c(OC(=O)C(C)C)c(C(=O)N(C)C)n1-c1ccc(OC)cc1` [UL1-067, 2-(dimethylcarbamoyl)-5-(ethoxycarbonyl)-1-(4-methoxyphenyl)-1H-pyrrole-3,4-diyl bis(2-methylpropanoate)], in data set [1], the “[ ] (μM) t0 min. Prodrug” value came out at 10 µM, the “[ ] (μM) t15 min. Prodrug” value is 0 µM, the “[ ] (μM) t30 min. Prodrug” value was found to be 0 µM and the “[ ] (μM) t60 min. Prodrug” value worked out at 0 µM. Also, in data set [1], the “[ ] (μM) t120 min. Prodrug” value is 0 µM. The compound further gave an IC50 in data set [2] (setting [4]) of 20 to 60 µM.
For the compound `CCOC(=O)c1c(OC(=O)C(C)(C)C)c(OC(=O)C(C)(C)C)c(C(=O)N(C)C)n1-c1ccc(OC)cc1` [UL1-068, 2-(dimethylcarbamoyl)-5-(ethoxycarbonyl)-1-(4-methoxyphenyl)-1H-pyrrole-3,4-diyl bis(2,2-dimethylpropanoate)], in data set [1], the “[ ] (μM) t0 min. Prodrug” value came to 10 µM, the “[ ] (μM) t15 min. Prodrug” value worked out at 3.02 µM, the “[ ] (μM) t30 min. Prodrug” value came out at 1.00 µM and the “[ ] (μM) t60 min. Prodrug” value stood at 0.136 µM. For the same compound, the “[ ] (μM) t120 min. Prodrug” value in data set [1] was 0 µM. The half-inhibitory concentration (IC50) in data set [2] (setting [5]) is more than 60 µM.
Turning to `CCOC(=O)c1c(O)c(OS(N)(=O)=O)c(C(=O)N(C)C)n1-c1ccc(OC)cc1` [UL1-069, ethyl 5-(dimethylcarbamoyl)-3-hydroxy-1-(4-methoxyphenyl)-4-(sulfamoyloxy)-1H-pyrrole-2-carboxylate], in data set [1], the “[ ] (μM) t0 min. Prodrug” value was 10 µM, the “[ ] (μM) t15 min. Prodrug” value amounted to 9.90 µM, the “[ ] (μM) t30 min. Prodrug” value worked out at 9.70 µM and the “[ ] (μM) t60 min. Prodrug” value was found to be 9.60 µM. Further, the “[ ] (μM) t120 min. Prodrug” value in data set [1] is 9.90 µM. In addition, the IC50 in data set [2] (setting [4]) is less than 10 µM.
With `CCOC(=O)c1c(O)c(OP(=O)(O)O)c(C(=O)N(C)C)n1-c1ccc(OC)cc1` [UL1-070, ethyl 5-(dimethylcarbamoyl)-3-hydroxy-1-(4-methoxyphenyl)-4-(phosphonooxy)-1H-pyrrole-2-carboxylate], in data set [3] (0 min), the “[ ] (μM) t0 min. Prodrug (Human)” value is 10 µM. In data set [3], the “[ ] (μM) t15 min. Prodrug (Human)” value worked out at 8.02 µM, the “[ ] (μM) t30 min. Prodrug (Human)” value was 8.28 µM, the “[ ] (μM) t60 min. Prodrug (Human)” value was 7.70 µM and the “[ ] (μM) t120 min. Prodrug (Human)” value is 7.48 µM. Moreover, in data set [1], the “[ ] (μM) t0 min. Prodrug” value came to 10 µM, the “[ ] (μM) t15 min. Prodrug” value was determined as 6.40 µM, the “[ ] (μM) t30 min. Prodrug” value was determined as 4.73 µM and the “[ ] (μM) t60 min. Prodrug” value was found to be 2.43 µM. For the same compound, the “[ ] (μM) t120 min. Prodrug” value in data set [1] came out at 0.93 µM. For the same compound, in data set [2] (setting [4]), the IC50 lay in the range of 20 to 60 µM.
Regarding `CCOC(=O)c1c(O)c(OC(=O)N2CCC(N3CCCCC3)CC2)c(C(=O)N(C)C)n1-c1ccc(OC)cc1` [UL1-071, 2-(dimethylcarbamoyl)-5-(ethoxycarbonyl)-4-hydroxy-1-(4-methoxyphenyl)-1H-pyrrol-3-yl [1,4′-bipiperidine]-1′-carboxylate], in data set [1], the “[ ] (μM) t0 min. Prodrug” value came to 10 µM, the “[ ] (μM) t15 min. Prodrug” value came to 9.50 µM, the “[ ] (μM) t30 min. Prodrug” value came out at 9.00 µM and the “[ ] (μM) t60 min. Prodrug” value was 8.72 µM. Moreover, the “[ ] (μM) t120 min. Prodrug” value in data set [1] stood at 7.39 µM. In addition, in data set [2] (setting [6]), the half-inhibitory concentration (IC50) was 20 to 60 µM.
With `CCOC(=O)c1c(OP(=O)(OCC)OCC)c(OP(=O)(OCC)OCC)c(C(=O)N(C)C)n1-c1ccc(OC)cc1` [UL1-092, ethyl 3,4-bis((diethoxyphosphoryl)oxy)-5-(dimethylcarbamoyl)-1-(4-methoxyphenyl)-1H-pyrrole-2-carboxylate], in data set [1], the “[ ] (μM) t0 min. Prodrug” value was 10 µM, the “[ ] (μM) t15 min. Prodrug” value was 5.12 µM, the “[ ] (μM) t30 min. Prodrug” value came out at 4.67 µM and the “[ ] (μM) t60 min. Prodrug” value amounted to 4.59 µM. Also, the “[ ] (μM) t120 min. Prodrug” value in data set [1] came to 3.70 µM. In addition, in data set [2] (setting [6]), the IC50 was more than 60 µM.
Consider `CCOC(=O)c1c(OP(=O)(OCC)OCC)c(O)c(C(=O)N(C)C)n1-c1ccc(OC)cc1` [UL1-094, ethyl 3-((diethoxyphosphoryl)oxy)-5-(dimethylcarbamoyl)-4-hydroxy-1-(4-methoxyphenyl)-1H-pyrrole-2-carboxylate], for which, in data set [1], the “[ ] (μM) t0 min. Prodrug” value was 10 µM, the “[ ] (μM) t15 min. Prodrug” value was found to be 9.99 µM, the “[ ] (μM) t30 min. Prodrug” value turned out to be 9.22 µM and the “[ ] (μM) t60 min. Prodrug” value came out at 8.78 µM. The “[ ] (μM) t120 min. Prodrug” value in data set [1] is 8.49 µM. Further, the half-inhibitory concentration (IC50) in data set [2] (setting [6]) lay within 20 to 60 µM.
As for `CCOC(=O)c1c(OC(=O)C(C)C)c(OC(=O)C(C)C)c(C(=O)N(C)C)n1-c1ccc(OCCOCCOCCOC)cc1` [UL1-098, 2-(dimethylcarbamoyl)-5-(ethoxycarbonyl)-1-(4-(2-(2-(2-methoxyethoxy)ethoxy)ethoxy)phenyl)-1H-pyrrole-3,4-diyl bis(2-methylpropanoate)], the “[ ] (μM) t0 min. Prodrug (Human)” value in data set [3] (0 min) came out at 10 µM. Also, in data set [3], the “[ ] (μM) t15 min. Prodrug (Human)” value is 5.42 µM, the “[ ] (μM) t30 min. Prodrug (Human)” value amounted to 3.45 µM, the “[ ] (μM) t60 min. Prodrug (Human)” value was determined as 1.76 µM and the “[ ] (μM) t120 min. Prodrug (Human)” value amounted to 0.65 µM. In data set [1], the “[ ] (μM) t0 min. Prodrug” value stood at 10 µM, the “[ ] (μM) t15 min. Prodrug” value was 0 µM, the “[ ] (μM) t30 min. Prodrug” value is 0 µM and the “[ ] (μM) t60 min. Prodrug” value was 0 µM. For the same compound, the “[ ] (μM) t120 min. Prodrug” value in data set [1] came out at 0 µM. For the same compound, the IC50 in data set [2] (setting [5]) was more than 60 µM.
For `CCOC(=O)c1c(OC(=O)CCOCCOC)c(OC(=O)CCOCCOC)c(C(=O)N(C)C)n1-c1ccc(OC)cc1` [UL1-105, 2-(dimethylcarbamoyl)-5-(ethoxycarbonyl)-1-(4-methoxyphenyl)-1H-pyrrole-3,4-diyl bis(3-(2-methoxyethoxy)propanoate)], in data set [1], the “[ ] (μM) t0 min. Prodrug” value was 10 µM, the “[ ] (μM) t15 min. Prodrug” value amounted to 0 µM, the “[ ] (μM) t30 min. Prodrug” value came out at 0 µM and the “[ ] (μM) t60 min. Prodrug” value came to 0 µM. The “[ ] (μM) t120 min. Prodrug” value in data set [1] is 0 µM. Moreover, the IC50 in data set [2] (setting [4]) is less than 10 µM.
In the case of `CCOC(=O)c1c(O)c(OCOP(=O)(O)O)c(C(=O)N(C)C)n1-c1ccc(OC)cc1` [UL1-109, ethyl 5-(dimethylcarbamoyl)-3-hydroxy-1-(4-methoxyphenyl)-4-((phosphonooxy)methoxy)-1H-pyrrole-2-carboxylate], in data set [3] (0 min), the “[ ] (μM) t0 min. Prodrug (Human)” value came out at 10 µM. Also, in data set [3], the “[ ] (μM) t15 min. Prodrug (Human)” value turned out to be 6.22 µM, the “[ ] (μM) t30 min. Prodrug (Human)” value was 5.37 µM, the “[ ] (μM) t60 min. Prodrug (Human)” value was found to be 3.39 µM and the “[ ] (μM) t120 min. Prodrug (Human)” value was determined as 1.72 µM. In data set [1], the “[ ] (μM) t0 min. Prodrug” value is 10 µM, the “[ ] (μM) t15 min. Prodrug” value was 6.87 µM, the “[ ] (μM) t30 min. Prodrug” value was 4.84 µM and the “[ ] (μM) t60 min. Prodrug” value is 2.45 µM. Besides, the “[ ] (μM) t120 min. Prodrug” value in data set [1] amounted to 0.73 µM. In data set [2] (setting [5]), the IC50 was more than 60 µM.
As to `CCOC(=O)c1c(OC(=O)C(C)(C)COCCOCCOC)c(OC(=O)C(C)(C)COCCOCCOC)c(C(=O)N(C)C)n1-c1ccc(OC)cc1` [UL1-111, 2-(dimethylcarbamoyl)-5-(ethoxycarbonyl)-1-(4-methoxyphenyl)-1H-pyrrole-3,4-diyl bis(3-(2-(2-methoxyethoxy)ethoxy)-2,2-dimethylpropanoate)], the “[ ] (μM) t0 min. Active (Human) (UL1-012)” value in data set [3] (10 μM prodrug, active UL1-012 appearing, 0 min) was “<LOQ”. In data set [3] (0 min), the “[ ] (μM) t0 min. Prodrug (Human)” value turned out to be 10 µM. In addition, in data set [3], the “[ ] (μM) t15 min. Prodrug (Human)” value stood at 2.84 µM, the “[ ] (μM) t30 min. Prodrug (Human)” value turned out to be 0.80 µM, the “[ ] (μM) t60 min. Prodrug (Human)” value was 0.09 µM and the “[ ] (μM) t120 min. Prodrug (Human)” value worked out at 0.00 µM. In addition, in data set [1], the “[ ] (μM) t0 min. Prodrug” value was 10 µM, the “[ ] (μM) t15 min. Prodrug” value turned out to be 4.74 µM, the “[ ] (μM) t30 min. Prodrug” value came to 2.47 µM and the “[ ] (μM) t60 min. Prodrug” value is 1.16 µM. Also, in data set [1], the “[ ] (μM) t120 min. Prodrug” value was found to be 0.47 µM. The compound further showed an IC50 in data set [2] (setting [4]) of less than 10 µM.
`CCOC(=O)c1c(OC(=O)C(C)(C)COCCCOP(=O)(O)O)c(OC(=O)C(C)(C)COCCCOP(=O)(O)O)c(C(=O)N(C)C)n1-c1ccc(OC)cc1` [UL1-118, 2-(dimethylcarbamoyl)-5-(ethoxycarbonyl)-1-(4-methoxyphenyl)-1H-pyrrole-3,4-diyl bis(2,2-dimethyl-3-(3-(phosphonooxy)propoxy)propanoate)]: in data set [1], the “[ ] (μM) t0 min. Prodrug” value was 10 µM, the “[ ] (μM) t15 min. Prodrug” value came to 6.04 µM, the “[ ] (μM) t30 min. Prodrug” value amounted to 4.00 µM and the “[ ] (μM) t60 min. Prodrug” value was 1.68 µM. The “[ ] (μM) t120 min. Prodrug” value in data set [1] came to 0.23 µM. Further, the IC50 in data set [2] (setting [4]) was less than 10 µM.
